Key:
[1] = tested on: patients with Wilson's Disease; experiment: Serum NCC by copper speciation assay, randomized open-label clinical study (Example 3); format: in vivo, human
Description: 1.95 mL of rhodium internal standard solution containing 1% TMAH/1% EDTA was combined with 50 μL of human serum in a 15 mL polypropylene tube, capped and rotary mixed for at least 30 minutes. The processed sample was then analysed by ICP-MS on an Agilent 7900x inductively coupled plasma mass spectrometer.
The samples were defrosted and equilibrated to room temperature prior to use, and vortex mixed for approximately 5 seconds. 80 μL of 50 mM Tris-HCl (pH 7.4) buffer solution was combined with 20 μL of the clinical sample, blank or reference standard in a 0.5 mL Eppendorf tube (protein low bind). The diluted sample (100 μL) was transferred to a 0.3 mL polypropylene LC vial and sealed with a screw cap. An aliquot (50 μL) of each processed sample was then analysed by LC-ICP-MS on an Agilent 8900x inductively coupled plasma mass spectrometer.
Speciation analysis of Cu-containing species in the serum samples was performed by an anion exchange high performance liquid chromatography (AE HPLC) column (GE Healthcare MonoQ 5/50 GL, stationary phase (10 μm; 5×50 mm)) with an ammonium acetate gradient (0-250 mM) for 20 min. A flow rate of 1.0 mL/min was used. The chromatographic separation was performed at 25° C. Detection of the eluting Cu species was achieved using a collision/reaction cell Agilent Technologies 8900x ICP-MS spectrometer. The isotopes 63Cu and 65Cu were monitored in time resolved mode analysis using an integration time of 0.3 sec. 63Cu is the most abundant isotope and therefore this isotope was used to quantify copper by LC-ICP-MS.
Efficacy was assessed and treatments were monitored primarily using total copper analysis and a copper speciation assay as outlined in Examples 1 and 2 to determine serum NCC levels.
Eligible patients were clinically stable with their standard of-care D penicillamine chelation therapy for at least 1 year. These patients entered a 12-Week Penicillamine Baseline Period (from study visits on Day 1 to Week 12). During this time, all patients continued their current D penicillamine regimen under study conditions. At the end of the Penicillamine Baseline Period, patients who fulfilled the protocol definition of being adequately controlled and tolerating D penicillamine were randomized in a 1:1 ratio to receive either TETA 4HCl or to continue to receive D penicillamine during a 24-Week Post-Randomization Period (from study visits Week 12 to Week 36).
The primary efficacy endpoint was the serum NCC concentration (in μg/L) at Week 36. Serum NCC concentrations were determined using a copper speciation serum NCC assay using the methodology outlined in Examples 1 and 2. The primary efficacy analysis utilized the serum NCC values from all study visits that were analyzed using a restricted maximum likelihood based general linear model for correlated data. The correlation due to repeated measures was modelled by specifying the variance covariance matrix.

[2] = tested on: patients with Wilson's Disease; experiment: 24-hour urinary copper excretion (UCE), clinical study of Example 3; format: in vivo, human; conditions: for 24-hour UCE value, mean / 24-hour UCE value, median / 24-hour UCE change from baseline, mean / 24-hour UCE change from baseline, median: ITT
Description: The number and the proportion of patients with a serum NCC value that matched the threshold (eg, serum NCC≤50 μg/L) were presented along with the 95% confidence interval of the proportion by visit and treatment arm. The proportions in the 2 arms were compared using Fisher's exact test. The same approach was applied on 24-hour UCE.

[3] = tested on: patients with Wilson's Disease; experiment: Clinical Global Impression of Change (CGIC) rating scale, clinical study of Example 3; format: in vivo, human; set-up: key: 7-point ordinal CGIC scale, 4 = no change; conditions: 7-point scale, ITT
From the text: The CGIC rating scale, a 7-point ordinal score, was summarized by visit and treatment arm, and compared between arms using a stratified Cochran-Mantel-Haenszel test. The UWDRS, a continuous measure, was summarized by visit and treatment arm with descriptive statistics for absolute values and the changes from baseline.

[4] = tested on: patients with Wilson's Disease; experiment: Baseline ALT, clinical study of Example 3; conditions: human, in vivo
From the text: For change from baseline in laboratory measurements, “baseline” was defined as the last non-missing value during the Penicillamine Baseline Period, including unscheduled values.

[5] = Day 1, 12-Week Penicillamine Baseline Period (all patients on D-penicillamine), ITT population, by arm
[6] = Week 4, Penicillamine Baseline Period (all patients on D-penicillamine), ITT
[7] = Week 8, Penicillamine Baseline Period (all patients on D-penicillamine), ITT
[8] = Week 12 (randomization), end of Penicillamine Baseline Period, ITT
[9] = Week 16, Post-Randomization Period, ITT
[10] = Week 20, Post-Randomization Period, ITT
[11] = Week 24, Post-Randomization Period, ITT
[12] = Week 28, Post-Randomization Period, ITT
[13] = Week 32, Post-Randomization Period, ITT
[14] = Week 36, Post-Randomization Period, ITT
[15] = Day 1, 12-Week Penicillamine Baseline Period (all patients on D-penicillamine), by arm
[16] = Week 4, Penicillamine Baseline Period (all patients on D-penicillamine)
[17] = Week 12 (randomization), end of Penicillamine Baseline Period
[18] = Week 16, 24-Week Post-Baseline Period
[19] = Week 24, 24-Week Post-Baseline Period
[20] = Week 36, 24-Week Post-Baseline Period
[21] = Week 12, Penicillamine Baseline Period
[22] = Week 16, Post-Randomization Period
[23] = Week 24, Post-Randomization Period
[24] = Week 36, Post-Randomization Period

## CC(C)(S)[C@@H](N)C(=O)O [D-Penicillamine, D-penicillamine]
[1]; [5]
  serum NCC value, mean: 63.9 µg/L
  serum NCC value, median: 61.0 µg/L
[1]; [6]
  serum NCC value, mean: 59.4 µg/L
  serum NCC value, median: 58.4 µg/L
[1]; [7]
  serum NCC value, mean: 71.9 µg/L
  serum NCC value, median: 69.0 µg/L
[1]; [8]
  serum NCC value, mean: 84.4 µg/L
  serum NCC value, median: 83.0 µg/L
[1]; Week 16, 24-Week Post-Randomization Period, ITT
  serum NCC value, mean: 82.8 µg/L
[1]; [9]
  serum NCC change from baseline, mean: -2.1 µg/L
  serum NCC change from baseline, median: 0.0 µg/L
  serum NCC value, median: 77.5 µg/L
[1]; [10]
  serum NCC change from baseline, mean: -12.3 µg/L
  serum NCC change from baseline, median: -11.6 µg/L
  serum NCC value, mean: 73.3 µg/L
  serum NCC value, median: 75.5 µg/L
[1]; [11]
  serum NCC change from baseline, mean: -16.9 µg/L
  serum NCC change from baseline, median: -20.0 µg/L
  serum NCC value, mean: 66.3 µg/L
  serum NCC value, median: 64.0 µg/L
[1]; [12]
  serum NCC change from baseline, mean: -10.6 µg/L
  serum NCC change from baseline, median: -17.5 µg/L
  serum NCC value, mean: 73.1 µg/L
  serum NCC value, median: 65.1 µg/L
[1]; [13]
  serum NCC change from baseline, mean: -19.1 µg/L
  serum NCC change from baseline, median: -21.7 µg/L
  serum NCC value, mean: 64.6 µg/L
  serum NCC value, median: 62.0 µg/L
[1]; Week 36 (primary efficacy endpoint), Post-Randomization Period, ITT
  serum NCC value, mean: 53.4 µg/L
[1]; [14]
  serum NCC change from baseline, mean: -29.7 µg/L
  serum NCC change from baseline, median: -34.0 µg/L
  serum NCC value, median: 51.0 µg/L
[1]; copper speciation assay, Table 4
  serum NCC levels, comparison between arms: very similar
[2]; [15]
  24-hour UCE value, mean: 568.3 μg/24 hours
  24-hour UCE value, median: 478.8 μg/24 hours
[2]; [16]
  24-hour UCE value, mean: 551.5 μg/24 hours
  24-hour UCE value, median: 594.6 μg/24 hours
[2]; [17]
  24-hour UCE value, mean: 539.1 μg/24 hours
  24-hour UCE value, median: 496.0 μg/24 hours
[2]; [18]
  24-hour UCE change from baseline, mean: −26.8 μg/24 hours
  24-hour UCE change from baseline, median: −60.3 μg/24 hours
  24-hour UCE value, mean: 512.1 μg/24 hours
  24-hour UCE value, median: 501.4 μg/24 hours
[2]; [19]
  24-hour UCE change from baseline, mean: 37.9 μg/24 hours
  24-hour UCE change from baseline, median: 23.4 μg/24 hours
  24-hour UCE value, mean: 546.8 μg/24 hours
  24-hour UCE value, median: 495.3 μg/24 hours
[2]; [20]
  24-hour UCE change from baseline, mean: 4.9 μg/24 hours
  24-hour UCE change from baseline, median: −4.7 μg/24 hours
  24-hour UCE value, mean: 519.7 μg/24 hours
  24-hour UCE value, median: 536.9 μg/24 hours
[2]; all time points analyzed after randomization, statistically significant differences
  24-hour UCE, comparison between treatment arms: higher levels of copper excretion
[3]; Week 4, Penicillamine Baseline Period (all patients on D-penicillamine), 4 = no change
  Clinical Global Impression of Change Scale, mean: 4.1
[3]; [16]
  Clinical Global Impression of Change Scale, median: 4.0
[3]; [21]
  Clinical Global Impression of Change Scale, mean: 3.9
  Clinical Global Impression of Change Scale, median: 4.0
[3]; [22]
  Clinical Global Impression of Change Scale, mean: 4.1
  Clinical Global Impression of Change Scale, median: 4.0
[3]; [23]
  Clinical Global Impression of Change Scale, mean: 4.0
  Clinical Global Impression of Change Scale, median: 4.0
[3]; [24]
  Clinical Global Impression of Change Scale, mean: 4.0
  Clinical Global Impression of Change Scale, median: 4.0
[4]
  ALT, mean baseline: 35.6 U/L

Source: patent US20240382435A1, “NON-CERULOPLASMIN BOUND COPPER LEVEL MONITORING” (ORPHALAN S.A., priority 2021, published 2024)
